# Source: patent publication US20210070684A1, “PRODUCTION OF HIGHLY PURE META,META-COUPLED BIS(4-ALKYLPHENOL) DERIVATIVES AND USES THEREOF” (KATHOLIEKE UNIVERSITEIT LEUVEN, priority 2017, published 2021)
structure (smiles),measurement,value
"COc1cc(C)c(Cc2cc(O)c(OC)cc2C)cc1O [Reference Example 1, 5,5′-methylenebis(2-methoxy-4-methylphenol)]",melting point,134 to 136 °C
